Entries after “also recorded” stand apart in the source; their conditions may differ.
Legend:
DX3puroβ6 (+) cells [1] = assay: Caspase-3/7 activity assay (ApoTox-Glo), DX3puroβ6; type: cell-based; conditions: for Caspase-3/7 activity, times higher: DX3puroβ6, 0.625 nM, 24 h, untreated = 1, n = 4; for Caspase-3/7 activity (in words): DX3puroβ6 (+), 0.625 nM (MMAE 1 nM, staurosporine 100 nM), 24, 48, 72 h
Protocol: (§1) Caspase-3/7 activity was analyzed using an ApoTox-Glo Triplex Assay kit. Cells were seeded in a 96 well plate at the same density and using the same respective media as described for the WST-1 assay and incubated overnight (37 °C, 5% CO2). DX3puroβ6 and DX3puro cells were treated with 1 nM of MMAE (free, non-targeted drug) or 0.625 nM of the other compounds: NH2-2, [^natCu]2, NH2-PDC-1, or [^natCu]PDC-1. BxPC-3 and MIA PaCa-2 cells were treated with 10 nM of MMAE or 250 nM of the other compounds: NH2-2, [^natCu]2, NH2-PDC-1, or [^natCu]PDC-1. All cells were treated with 100 nM of staurosporine as a positive control.[24] Untreated cells (media) were used as a measure of endogenous caspase-3/7 activity (normalized to 1). Cells were treated (n = 4/cell line/compound/time) for 24, 48, or 72 h (37 °C, 5% CO2) prior to washing. After treatment, the media was removed, cells were washed, and Caspase-Glo 3/7 reagent was added, and incubated for 1 h at room temperature. Caspase-3/7 activity was analyzed by measuring luminescence with a Fluoroskan FL microplate reader according to the manufacturer’s protocol.

DX3puro (−) cells [2] = assay: WST-1 cell viability assay, DX3puro; type: cell-based; conditions: up to 5 nM
Protocol: (§2) Peptides NH2-2 and [^natCu]2 were not toxic to any cells (Figure 3, gray and black, respectively).
(§3) Cell viability was measured after treatment with either NH2-2, [^natCu]2, MMAE (free, non-targeted drug), NH2-PDC-1, or [^natCu]PDC-1 in DX3puroβ6 (+) and DX3puro (−) cells at variable concentrations up to 5 nM, and in BxPC-3 (+) and MIA PaCa-2 (−) cells at variable concentrations up to 250 nM, or with MMAE at concentrations up to 10 nM. Cells were seeded in a 96 well plate at a density of 6000 cells/well for DX3puroβ6 and DX3puro, and at a density of 10,000 cells/well for BxPC-3 and MIA PaCa-2. DMEM media was used for all cells except for BxPC-3 (RPMI 1640 media). Cells (n = 6–8 wells/cell type/compound) were treated with different concentrations of NH2-2, [^natCu]2, MMAE, NH2-PDC-1, or [^natCu]PDC-1 dissolved in the respective media, as well as their respective media (no treatment) for 48 h (37 °C, 5% CO2), after which the media was removed; cells were washed twice with media (200 μL) and re-incubated in media (37 °C, 5% CO2) for 24 h. The media was then removed and the WST-1 reagent was added to each well, and the cells were incubated for 2 h at 37 °C. The 96 well plates were read at 450 nm by a Multiscan Ascent microplate reader. The percent cell viability was normalized to untreated cells (set as 100% viability) for each cell line.

MIA PaCa-2 (−) cells [3] = assay: Caspase-3/7 activity assay (ApoTox-Glo), MIA PaCa-2; type: cell-based; conditions: 250 nM (MMAE 10 nM, staurosporine 100 nM), 24, 48, 72 h
Protocol: as §1

DX3puro (−) cells [4] = assay: Caspase-3/7 activity assay (ApoTox-Glo), DX3puro; type: cell-based; conditions: 0.625 nM (MMAE 1 nM, staurosporine 100 nM), 24, 48, 72 h
Protocol: as §1

BxPC-3 (+) cells [5] = assay: Caspase-3/7 activity assay (ApoTox-Glo), BxPC-3; type: cell-based; conditions: for Caspase-3/7 activity, fold increase: 250 nM, 48 h, untreated = 1, n = 4; for Caspase-3/7 activity (in words): 250 nM (MMAE 10 nM, staurosporine 100 nM), 24, 48, 72 h
Protocol: as §1

BxPC-3 (+) cells [6] = assay: WST-1 cell viability assay, BxPC-3; type: cell-based
Protocol: as §2, §3

DX3puroβ6 (+) cells [7] = assay: WST-1 cell viability assay, DX3puroβ6; type: cell-based; conditions: for Fold more cytotoxic toward DX3puroβ6 (+) than DX3puro (−) cells: WST-1 EC50 ratio
Protocol: as §2, §3

MIA PaCa-2 (−) cells [8] = assay: WST-1 cell viability assay, MIA PaCa-2; type: cell-based
Protocol: as §2, §3

DX3puroβ6 (+) tumors = assay: Therapy study, DX3puroβ6 (+) tumor-bearing mice; type: in vivo
From the text: (§4) Mice treated with [^natCu]PDC-1 had slower tumor growth compared to the groups receiving saline, non-drug bearing peptide [^natCu]2, or free, non-targeted MMAE (Figure 7). […] All mice in the groups treated with saline, non-drug bearing peptide [^natCu]2, or free, non-targeted MMAE had met an end point criterion (≥2 cm in any direction and/or tumor ulceration) by 56 days, 70 days, and 64 days from start of treatment, respectively, with all these groups having the same median survival of 37 days (Figure 7B).
Tumor xenografts were established by subcutaneous injection of either DX3puroβ6 or DX3puro cells (3 × 10^6 cells in 100 μL serum-free DMEM/animal) into the flank. The tumors were allowed to grow for 19 days before the start of treatment (day 0). Mice were treated with either (1) saline, (2) peptide ([^natCu]2), 6 mg/kg, 1.12 μmol/kg), (3) non-targeted drug (MMAE, 0.3 mg/kg, 0.42 μmol/kg), or (4) PDC ([^natCu]PDC-1, 6 mg/kg, 0.88 μmol/kg). Dosing of MMAE was 0.3 mg/kg as per maximum dose with no physiological response.[25] The [^natCu]PDC-1 treatment groups consisted of n = 10/tumor model, while all other groups (saline, [^natCu]2, and MMAE) consisted of n = 4/tumor model. All groups received four doses (on days 0, 3, 6, and 9) via i.v. tail vein injection of the above dose dissolved in saline (100 μL). The mean weights and standard deviation of each group was 25.9 ± 1.2 g (saline), 25.6 ± 1.5 g ([^natCu]2), 25.8 ± 2.5 g (MMAE), 24.9 ± 1.9 g ([^natCu]PDC-1, DX3puroβ6 tumors), and 25.7 ± 2.0 g ([^natCu]PDC-1, DX3puro tumors) at day 0. Tumor volumes and body weights (to assess possible systemic toxicity) were measured starting on day 0, and once a week thereafter until the end of the study. Tumor volume (V) was determined according to the equation V = (π/6) × L × W × H, where L is the longest axis, W is the axis perpendicular to L, and H is perpendicular to the plane of L and W. End point determination criteria were: any axis >2 cm, active ulceration, or compromised health of the mouse (>20% loss of body weight from the start of the study). All data are represented as the mean ± SD and are plotted beginning at day 0. Survival curves were determined by Kaplan–Meier method.

DX3puro (−) tumors = assay: Therapy study, DX3puro (−) tumor-bearing mice; type: in vivo
From the text: as §4
Tumor xenografts were established by subcutaneous injection of either DX3puroβ6 or DX3puro cells (3 × 10^6 cells in 100 μL serum-free DMEM/animal) into the flank. The tumors were allowed to grow for 19 days before the start of treatment (day 0). […] Tumor volumes and body weights (to assess possible systemic toxicity) were measured starting on day 0, and once a week thereafter until the end of the study. Tumor volume (V) was determined according to the equation V = (π/6) × L × W × H, where L is the longest axis, W is the axis perpendicular to L, and H is perpendicular to the plane of L and W. End point determination criteria were: any axis >2 cm, active ulceration, or compromised health of the mouse (>20% loss of body weight from the start of the study). […] Survival curves were determined by Kaplan–Meier method.

[9] = 48 h treatment + 24 h media, mean ± SD

Row | Compound | Caspase-3/7 activity, times higher (DX3puroβ6 (+) cells [1]) | Caspase-3/7 activity (in words) (MIA PaCa-2 (−) cells [3]) | Caspase-3/7 activity (in words) (DX3puro (−) cells [4]) | Caspase-3/7 activity, fold increase (BxPC-3 (+) cells [5]) | Fold more cytotoxic toward DX3puroβ6 (+) than DX3puro (−) cells (DX3puroβ6 (+) cells [7]) | Cytotoxicity (in words), WST-1 (DX3puro (−) cells [2]) | Caspase-3/7 activity (in words) (DX3puroβ6 (+) cells [1]) | Caspase-3/7 activity (in words) (BxPC-3 (+) cells [5]) | also measured
1 | CC[C@H](C)[C@@H]([C@@H](CC(=O)N1CCC[C@H]1[C@H](OC)[C@@H](C)C(=O)N[C@H](C)[C@@H](O)c1ccccc1)OC)N(C)C(=O)[C@@H](NC(=O)[C@H](C(C)C)N(C)C(=O)OCc1ccc(NC(=O)[C@H](CCCNC(N)=O)NC(=O)[C@@H](NC(=O)CCOCCOCCNC(=O)CCN2C(=O)CC(SC[C@H](N)C(=O)NCCOCCOCCOCCOCCOCCOCCOCCOCCOCCOCCOCCOCCOCCOCCOCCOCCOCCOCCOCCOCCOCCOCCOCCOCCOCCOCCOCCOCCC(=O)N[C@@H](CC(N)=O)C(=O)N[C@@H](C)C(=O)N[C@H](C(=O)N3CCC[C@H]3C(=O)N[C@@H](CC(N)=O)C(=O)N[C@@H](CC(C)C)C(=O)N[C@@H](CCCNC(=N)N)C(=O)NCC(=O)N[C@@H](CC(=O)O)C(=O)N[C@@H](CC(C)C)C(=O)N[C@@H](CCC(N)=O)C(=O)N[C@H](C(=O)N[C@@H](CC(C)C)C(=O)N[C@@H](C)C(=O)N[C@@H](CCC(N)=O)C(=O)N[C@@H](CCCNC(=N)N)C(=O)N[C@H](C(=O)N[C@@H](C)C(=O)N[C@@H](CCCNC(=N)N)C(=O)N[C@H](C(=O)NCCOCCOCCOCCOCCOCCOCCOCCOCCOCCOCCOCCOCCOCCOCCOCCOCCOCCOCCOCCOCCOCCOCCOCCOCCOCCOCCOCCOCCC(N)=O)[C@@H](C)O)C(C)C)C(C)C)C(C)C)C2=O)C(C)C)cc1)C(C)C (some centres unmarked) [NH2-PDC-1] | > 5 times | no significant increase | no observed change | > 3 fold | > 31 fold | – | – | – | EC50 (DX3puro (−) cells [2]; [9]): > 5 nM; EC50 (BxPC-3 (+) cells [6]; [9]): 222 ± 114 nM; EC50 (DX3puroβ6 (+) cells [7]; DX3puroβ6 (+), 48 h treatment + 24 h media, mean ± SD): 0.159 ± 0.014 nM; EC50 (MIA PaCa-2 (−) cells [8]; MIA PaCa-2 (−), 48 h treatment + 24 h media, up to 250 nM (MMAE up to 10 nM), mean ± SD): > 250 nM
2 | CC[C@H](C)[C@@H]([C@@H](CC(=O)N1CCC[C@H]1[C@H](OC)[C@@H](C)C(=O)N[C@H](C)[C@@H](O)c1ccccc1)OC)N(C)C(=O)[C@@H](NC(=O)[C@H](C(C)C)N(C)C(=O)OCc1ccc(NC(=O)[C@H](CCCNC(N)=O)NC(=O)[C@@H](NC(=O)CCOCCOCCNC(=O)CCN2C(=O)CC(SC[C@H](NC(=O)CN3CCN(CC(=O)O)CCN(CC(=O)O)CCN(CC(=O)O)CC3)C(=O)NCCOCCOCCOCCOCCOCCOCCOCCOCCOCCOCCOCCOCCOCCOCCOCCOCCOCCOCCOCCOCCOCCOCCOCCOCCOCCOCCOCCOCCC(=O)N[C@@H](CC(N)=O)C(=O)N[C@@H](C)C(=O)N[C@H](C(=O)N3CCC[C@H]3C(=O)N[C@@H](CC(N)=O)C(=O)N[C@@H](CC(C)C)C(=O)N[C@@H](CCCNC(=N)N)C(=O)NCC(=O)N[C@@H](CC(=O)O)C(=O)N[C@@H](CC(C)C)C(=O)N[C@@H](CCC(N)=O)C(=O)N[C@H](C(=O)N[C@@H](CC(C)C)C(=O)N[C@@H](C)C(=O)N[C@@H](CCC(N)=O)C(=O)N[C@@H](CCCNC(=N)N)C(=O)N[C@H](C(=O)N[C@@H](C)C(=O)N[C@@H](CCCNC(=N)N)C(=O)N[C@H](C(=O)NCCOCCOCCOCCOCCOCCOCCOCCOCCOCCOCCOCCOCCOCCOCCOCCOCCOCCOCCOCCOCCOCCOCCOCCOCCOCCOCCOCCOCCC(N)=O)[C@@H](C)O)C(C)C)C(C)C)C(C)C)C2=O)C(C)C)cc1)C(C)C (some centres unmarked) [[^natCu]PDC-1, metal not drawn] | > 5 times | slight increase | no observed change | > 3 fold | > 86 fold | no observable cytotoxic effects | – | – | Median survival (DX3puroβ6 (+) tumors; DX3puroβ6 (+) tumors, 6 mg/kg i.v. on days 0, 3, 6, 9, n = 10): 77 days; Mean tumor volume, times smaller than all other treatment groups (saline, [natCu]2, MMAE) (DX3puroβ6 (+) tumors; day 37): > 4 times; Mean tumor volume, times smaller than equally treated DX3puro (−) tumors (DX3puroβ6 (+) tumors; day 37, P = 0.0099): > 2.75 times; Body weight / systemic toxicity (in words) (DX3puroβ6 (+) tumors; four doses of 6 mg/kg i.v., body weight weekly, all groups compared, 6 mg/kg): No significant differences; also recorded: did not cause adverse systemic side-effects; Median survival, fold longer than other treatment groups (DX3puroβ6 (+) tumors; vs saline, [natCu]2, MMAE (37 days)): > 2 fold; Concentration required for noticeable cytotoxic effects (MIA PaCa-2 (−) cells [8]; MIA PaCa-2, WST-1): ≥ 250 nM; Median survival (DX3puro (−) tumors; 6 mg/kg i.v. on days 0, 3, 6, 9, n = 10): 49 days; Time at which all mice had reached an end point (DX3puro (−) tumors; from start of treatment): 95 days
3 | CN[C@@H]1C[C@H]2O[C@@](C)([C@@H]1OC)n1c3ccccc3c3c4c(c5c6ccccc6n2c5c31)C(=O)NC4 [staurosporine, reference compound] | – | increased caspase-3/7 activity | increased caspase-3/7 activity | – | – | – | increased caspase-3/7 activity | increased caspase-3/7 activity | –
4 | NH2-C-αvβ6-BP [NH2-2] | – | no effect on caspase-3/7 activity | no effect on caspase-3/7 activity | – | – | not toxic | no effect on caspase-3/7 activity | no effect on caspase-3/7 activity | Cytotoxicity (in words), WST-1 (BxPC-3 (+) cells [6]; up to 250 nM): not toxic; Cytotoxicity (in words), WST-1 (DX3puroβ6 (+) cells [7]; DX3puroβ6 (+), up to 5 nM): not toxic; Cytotoxicity (in words), WST-1 (MIA PaCa-2 (−) cells [8]; MIA PaCa-2 (−), up to 250 nM): not toxic
